In general, IC50 refers to the concentration that gives 50% inhibition. Low readings indicate greater potency, high ones weaker potency.

Some results are limits rather than exact numbers.

Here are results for 33 compounds from patent publication US20130303509A1, “NAMPT INHIBITORS” (AbbVie Inc., priority 2012, published 2013).

In the assay the test system is PC3 cells. Kind of assay: NAMPT Cell Proliferation Assay. As to conditions: Homo sapiens, PC-3, 120 h, 5 days incubation, cell viability by Cell Titer Glo. Type of assay: cell-based. Summed up: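 Seeded at 500 cells/well in RPMI with 10% heat-inactivated FBS and left to attach overnight at 37° C, 5% CO2. Compounds were added as 10-fold dilutions […] for 5 days, then viability was read by CellTiter-Glo. IC50s came from sigmoidal fits of percent inhibition.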
A general note: ATP-based viability assays read luminescence as a measure of living cells.
Consider `O=C(Nc1ccc(OC2CN(C(=O)C3CCOC3)C2)cc1)C1CN(c2ccnnc2)C1` (stereo not drawn) [Example 208, 1-(pyridazin-4-yl)-N-(4-{[1-(tetrahydrofuran-3-ylcarbonyl)azetidin-3-yl]oxy}phenyl)azetidine-3-carboxamide], for which it took 593 nM to reach half-maximal inhibition (IC50).

For the compound `Cc1ccc(C(=O)N2CCC(Oc3ccc(NC(=O)C4CN(c5cccnn5)C4)cc3)CC2)s1` [Example 219, N-[4-({1-[(5-methylthiophen-2-yl)carbonyl]piperidin-4-yl}oxy)phenyl]-1-(pyridazin-3-yl)azetidine-3-carboxamide], inhibition was half-maximal at 8.86 nM (IC50).

Turning to `O=C(N[C@H]1CCN(c2cccnn2)C1)c1ccc(C2CCN(C(=O)c3ccccc3F)CC2)s1` [Example 763, 5-[1-(2-fluorobenzoyl)piperidin-4-yl]-N-[(3S)-1-(pyridazin-3-yl)pyrrolidin-3-yl]thiophene-2-carboxamide], the midpoint of inhibition, the IC50, lay at 8.41 nM.

Compound `O=C(Nc1ccc(C2CCN(C(=O)CC3CCCC3)CC2)cc1)C1CN(c2cccnn2)C1` [Example 397, N-{4-[1-(cyclopentylacetyl)piperidin-4-yl]phenyl}-1-(pyridazin-3-yl)azetidine-3-carboxamide] returned an IC50 of 3.35 nM.

For the compound `O=C(Nc1ccc(O[C@@H]2CCN(C(=O)c3ccc(F)c(F)c3)C2)cc1)C1CN(c2cccnn2)C1` [Example 493, N-(4-{[(3R)-1-(3,4-difluorobenzoyl)pyrrolidin-3-yl]oxy}phenyl)-1-(pyridazin-3-yl)azetidine-3-carboxamide], half-maximal inhibition (IC50) required 6.73 nM.

With `Cc1ccc(C(=O)N2CCC(Oc3ccc(NC(=O)C4CN(c5cccnc5)C4)cc3)CC2)s1` [Example 62, N-[4-({1-[(5-methylthiophen-2-yl)carbonyl]piperidin-4-yl}oxy)phenyl]-1-(pyridin-3-yl)azetidine-3-carboxamide], inhibition was half-maximal at 14.2 nM (IC50).

As to `O=C(Nc1ccc(-c2cc(C3CC3)nn2CCO)cc1)C1CN(c2cccnn2)C1` [Example 817, N-{4-[3-cyclopropyl-1-(2-hydroxyethyl)-1H-pyrazol-5-yl]phenyl}-1-(pyridazin-3-yl)azetidine-3-carboxamide], inhibition was half-maximal at 64.1 nM (IC50).

`Cc1ncccc1N1CC[C@H](C(=O)Nc2ccc(C3CCN(C(=O)CCC(F)(F)F)CC3)cc2)C1` [Example 745, (3S)-1-(2-methylpyridin-3-yl)-N-{4-[1-(4,4,4-trifluorobutanoyl)piperidin-4-yl]phenyl}pyrrolidine-3-carboxamide] yielded an IC50 above 10000 nM.

`Cc1ccccc1C(=O)N1CCC(S(=O)(=O)c2ccc(NC(=O)C3CN(c4cccnn4)C3)cc2)CC1` [Example 578, N-(4-{[1-(2-methylbenzoyl)piperidin-4-yl]sulfonyl}phenyl)-1-(pyridazin-3-yl)azetidine-3-carboxamide] had an IC50 of 88.7 nM.

As to `O=C(Nc1ccc(S(=O)(=O)C2CCN(C(=O)Cc3ccccc3F)CC2)cc1)C1CN(c2cccnn2)C1` [Example 613, N-[4-({1-[(2-fluorophenyl)acetyl]piperidin-4-yl}sulfonyl)phenyl]-1-(pyridazin-3-yl)azetidine-3-carboxamide], it took 707 nM to reach half-maximal inhibition (IC50).

Take `CC(C)(C)Cn1cc(-c2ccc(NC(=O)C3CN(c4cccnn4)C3)cc2)cn1` [Example 751, N-{4-[1-(2,2-dimethylpropyl)-1H-pyrazol-4-yl]phenyl}-1-(pyridazin-3-yl)azetidine-3-carboxamide]: 2.71 nM corresponded to half-maximal inhibition (IC50).

For `O=C(NCC(=O)N1CCC(c2ccc(NC(=O)C3CN(c4cccnn4)C3)cc2)CC1)c1ccccc1` [Example 413, N-{4-[1-(N-benzoylglycyl)piperidin-4-yl]phenyl}-1-(pyridazin-3-yl)azetidine-3-carboxamide], 10 nM corresponded to half-maximal inhibition (IC50).

`O=C(Nc1ccc(O[C@@H]2CCN(C(=O)Cc3ccc(C(F)(F)F)cc3)C2)cc1)C1CN(c2ccnnc2)C1` [Example 455, 1-(pyridazin-4-yl)-N-(4-{[(3R)-1-{[4-(trifluoromethyl)phenyl]acetyl}pyrrolidin-3-yl]oxy}phenyl)azetidine-3-carboxamide] returned an IC50 of 458 nM.

With `O=C(Nc1ccc(OC2CCN(C(=O)c3cccc(C(F)(F)F)c3)CC2)cc1)C1CN(c2ccnnc2)C1` [Example 285, 1-(pyridazin-4-yl)-N-[4-({1-[3-(trifluoromethyl)benzoyl]piperidin-4-yl}oxy)phenyl]azetidine-3-carboxamide], the half-maximal inhibitory concentration (IC50) is 69.2 nM.

As for `O=C(Nc1ccc(C2CCN(C(=O)CC3CCOCC3)CC2)cc1)C1CN(c2ccnnc2)C1` [Example 145, 1-(pyridazin-4-yl)-N-{4-[1-(tetrahydro-2H-pyran-4-ylacetyl)piperidin-4-yl]phenyl}azetidine-3-carboxamide], 70.9 nM corresponded to half-maximal inhibition (IC50).

`O=C(Nc1ccc(C2CCN(C(=O)C3CCC(F)(F)CC3)CC2)cc1)C1CN(c2ccnnc2)C1` [Example 560, N-(4-{1-[(4,4-difluorocyclohexyl)carbonyl]piperidin-4-yl}phenyl)-1-(pyridazin-4-yl)azetidine-3-carboxamide] showed an IC50 of 5.85 nM.

Regarding `O=C(Nc1ccc(C2CN(C(=O)c3cc(F)cc(F)c3)C2)cc1)[C@H]1CCN(c2cccnn2)C1` [Example 790, (3S)-N-{4-[1-(3,5-difluorobenzoyl)azetidin-3-yl]phenyl}-1-(pyridazin-3-yl)pyrrolidine-3-carboxamide], the IC50 amounted to 74.6 nM.

As for `O=C(Nc1ccc(C2CCN(C(=O)c3ccccc3)CC2)cc1)[C@H]1CCN(c2cccnn2)C1` [Example 311, (3S)—N-[4-(1-benzoylpiperidin-4-yl)phenyl]-1-(pyridazin-3-yl)pyrrolidine-3-carboxamide], it took 2.9 nM to reach half-maximal inhibition (IC50).

`O=C(Nc1ccc(OC2CCN(C(=O)c3nccs3)CC2)cc1)C1CN(c2cccnn2)C1` [Example 213, 1-(pyridazin-3-yl)-N-(4-{[1-(1,3-thiazol-2-ylcarbonyl)piperidin-4-yl]oxy}phenyl)azetidine-3-carboxamide] had an IC50 of 6.88 nM.

Regarding `CC(C)(C)OC(=O)N1CCC(Oc2ccc(C(=O)N[C@H]3CCN(c4cccnc4)C3)cc2)CC1` [Example 27, tert-butyl 4-(4-{[(3S)-1-(pyridin-3-yl)pyrrolidin-3-yl]carbamoyl}phenoxy)piperidine-1-carboxylate], the IC50 was above 10000 nM.

`CC(C)(C)OC(=O)N1CCC(F)(c2ccc(NC(=O)C3CN(c4cccnn4)C3)cc2)CC1` [Example 809, tert-butyl 4-fluoro-4-[4-({[1-(pyridazin-3-yl)azetidin-3-yl]carbonyl}amino)phenyl]piperidine-1-carboxylate] yielded an IC50 of 2.4 nM.

For `O=C(Nc1ccc(C2CCN(C(=O)CC3CCCC3)CC2)cc1)C1CN(c2cccnc2)C1` [Example 101, N-{4-[1-(cyclopentylacetyl)piperidin-4-yl]phenyl}-1-(pyridin-3-yl)azetidine-3-carboxamide], the IC50 is 0.31 nM.

The compound `O=C(Nc1ccc(OC2CCN(C(=O)CC3CC3)CC2)cc1)[C@H]1CCN(c2cccnc2)C1` [Example 16, (3S)-N-(4-{[1-(cyclopropylacetyl)piperidin-4-yl]oxy}phenyl)-1-(pyridin-3-yl)pyrrolidine-3-carboxamide] registered an IC50 of 92.6 nM.

Regarding `O=C(Nc1ccc(OC2CCN(C(=O)c3ccc(OC(F)(F)F)cc3)CC2)cc1)C1CN(c2ccnnc2)C1` [Example 290, 1-(pyridazin-4-yl)-N-[4-({1-[4-(trifluoromethoxy)benzoyl]piperidin-4-yl}oxy)phenyl]azetidine-3-carboxamide], half-maximal inhibition (IC50) was put at 80.7 nM.

`O=C(Nc1ccc(C2CCN(C(=O)c3cccs3)CC2)cc1)C1CN(c2ccnnc2)C1` [Example 549, 1-(pyridazin-4-yl)-N-{4-[1-(thiophen-2-ylcarbonyl)piperidin-4-yl]phenyl}azetidine-3-carboxamide] registered an IC50 of 0.67 nM.

The compound `O=C(Nc1ccc(O[C@@H]2CCN(C(=O)Cc3ccccc3F)C2)cc1)C1CN(c2cccnn2)C1` [Example 501, N-[4-({(3R)-1-[(2-fluorophenyl)acetyl]pyrrolidin-3-yl}oxy)phenyl]-1-(pyridazin-3-yl)azetidine-3-carboxamide] gave an IC50 of 6.07 nM.

In turn, `O=C(Nc1ccc(OC2CCN(C(=O)c3ccc(F)cc3F)CC2)cc1)C1CN(c2cccnn2)C1` [Example 229, N-(4-{[1-(2,4-difluorobenzoyl)piperidin-4-yl]oxy}phenyl)-1-(pyridazin-3-yl)azetidine-3-carboxamide] gave an IC50 of 6.46 nM.

Regarding `COCCn1nc(C(C)(C)C)cc1-c1ccc(NC(=O)C2CN(c3cccnn3)C2)cc1` [Example 865, N-{4-[3-tert-butyl-1-(2-methoxyethyl)-1H-pyrazol-5-yl]phenyl}-1-(pyridazin-3-yl)azetidine-3-carboxamide], the IC50 was 4.06 nM.

`O=C(Nc1ccc(C2CCN(C(=O)c3ccccn3)CC2)cc1)C1CN(c2ccnnc2)C1` [Example 543, 1-(pyridazin-4-yl)-N-{4-[1-(pyridin-2-ylcarbonyl)piperidin-4-yl]phenyl}azetidine-3-carboxamide] showed an IC50 of 7.7 nM.

Compound `O=C(Nc1ccc(C2CCN(C(=O)c3cc(F)ccc3F)CC2)cc1)[C@H]1CCN(c2cccnn2)C1` [Example 645, (3S)-N-{4-[1-(2,5-difluorobenzoyl)piperidin-4-yl]phenyl}-1-(pyridazin-3-yl)pyrrolidine-3-carboxamide] returned a 50% inhibitory concentration (IC50) of 3.3 nM.

Turning to `O=C(Nc1ccc(C2CCN(C(=O)Cc3ccccc3F)CC2)cc1)C1CN(c2ccnnc2)C1` [Example 540, N-(4-{1-[(2-fluorophenyl)acetyl]piperidin-4-yl}phenyl)-1-(pyridazin-4-yl)azetidine-3-carboxamide], it took 3.91 nM to reach half-maximal inhibition (IC50).

`O=C(Nc1ccc(O[C@@H]2CCN(C(=O)c3ccc(F)cc3)C2)cc1)C1CN(c2ccnnc2)C1` [Example 396, N-(4-{[(3R)-1-(4-fluorobenzoyl)pyrrolidin-3-yl]oxy}phenyl)-1-(pyridazin-4-yl)azetidine-3-carboxamide] displayed an IC50 of 68.5 nM.

In turn, `CC(C)(O)C(=O)N1CCC(c2ccc(NC(=O)C3CN(c4ccnnc4)C3)cc2)CC1` [Example 85, N-{4-[1-(2-hydroxy-2-methylpropanoyl)piperidin-4-yl]phenyl}-1-(pyridazin-4-yl)azetidine-3-carboxamide] showed an IC50 of 20.5 nM.
